Laboratory results reported in ChEMBL document CHEMBL1141082, “4-Anilino-7,8-dialkoxybenzo[g]quinoline-3-carbonitriles as potent Src kinase inhibitors” (J Med Chem, 2005).

Legend:
[1] = molecular target: Cyclin-dependent kinase 4 (Homo sapiens, UniProt P11802); assay: Inhibitory concentration against CDK4
[2] = molecular target: Serine/threonine-protein kinase AKT (Homo sapiens, UniProt P31751+Q9Y243+P31749); assay: Inhibitory concentration against AKT; format: protein assay
[3] = molecular target: Receptor tyrosine-protein kinase erbB-2 (Homo sapiens, UniProt P04626); assay: nhibitory concentrations against ErbB-2
[4] = molecular target: Proto-oncogene tyrosine-protein kinase Src (Homo sapiens, UniProt P12931); assay: Inhibitory concentration against Src kinase
Mus musculus [5] = assay: Plasma levels in nude mouse after administration at a single dose of 50 mg/kg ip after 4 hr; format: functional; conditions: route intraperitoneal
Mus musculus [6] = assay: Plasma levels in nude mouse after administration at a single dose of 50 mg/kg ip after 8 hr; format: functional; conditions: route intraperitoneal
Mus musculus [7] = assay: Plasma levels in nude mouse after administration at a single dose of 50 mg/kg ip after 24 hours; format: functional; conditions: route intraperitoneal
Mus musculus [8] = assay: Plasma levels in nude mouse after administration at a single dose of 50 mg/kg ip after 0.5 hours; format: functional; conditions: route intraperitoneal
Mus musculus [9] = organism: Mus musculus; conditions: dose 50 mg/kg; route intraperitoneal
Mus musculus [10] = assay: Plasma levels in nude mouse after administration at a single dose of 50 mg/kg ip after 4 hours; format: functional; conditions: route intraperitoneal
Mus musculus [11] = assay: Plasma levels in nude mouse after administration at a single dose of 50 mg/kg ip after 8 hours; format: functional; conditions: route intraperitoneal

Sequence of Receptor tyrosine-protein kinase erbB-2 (P04626 whole entry): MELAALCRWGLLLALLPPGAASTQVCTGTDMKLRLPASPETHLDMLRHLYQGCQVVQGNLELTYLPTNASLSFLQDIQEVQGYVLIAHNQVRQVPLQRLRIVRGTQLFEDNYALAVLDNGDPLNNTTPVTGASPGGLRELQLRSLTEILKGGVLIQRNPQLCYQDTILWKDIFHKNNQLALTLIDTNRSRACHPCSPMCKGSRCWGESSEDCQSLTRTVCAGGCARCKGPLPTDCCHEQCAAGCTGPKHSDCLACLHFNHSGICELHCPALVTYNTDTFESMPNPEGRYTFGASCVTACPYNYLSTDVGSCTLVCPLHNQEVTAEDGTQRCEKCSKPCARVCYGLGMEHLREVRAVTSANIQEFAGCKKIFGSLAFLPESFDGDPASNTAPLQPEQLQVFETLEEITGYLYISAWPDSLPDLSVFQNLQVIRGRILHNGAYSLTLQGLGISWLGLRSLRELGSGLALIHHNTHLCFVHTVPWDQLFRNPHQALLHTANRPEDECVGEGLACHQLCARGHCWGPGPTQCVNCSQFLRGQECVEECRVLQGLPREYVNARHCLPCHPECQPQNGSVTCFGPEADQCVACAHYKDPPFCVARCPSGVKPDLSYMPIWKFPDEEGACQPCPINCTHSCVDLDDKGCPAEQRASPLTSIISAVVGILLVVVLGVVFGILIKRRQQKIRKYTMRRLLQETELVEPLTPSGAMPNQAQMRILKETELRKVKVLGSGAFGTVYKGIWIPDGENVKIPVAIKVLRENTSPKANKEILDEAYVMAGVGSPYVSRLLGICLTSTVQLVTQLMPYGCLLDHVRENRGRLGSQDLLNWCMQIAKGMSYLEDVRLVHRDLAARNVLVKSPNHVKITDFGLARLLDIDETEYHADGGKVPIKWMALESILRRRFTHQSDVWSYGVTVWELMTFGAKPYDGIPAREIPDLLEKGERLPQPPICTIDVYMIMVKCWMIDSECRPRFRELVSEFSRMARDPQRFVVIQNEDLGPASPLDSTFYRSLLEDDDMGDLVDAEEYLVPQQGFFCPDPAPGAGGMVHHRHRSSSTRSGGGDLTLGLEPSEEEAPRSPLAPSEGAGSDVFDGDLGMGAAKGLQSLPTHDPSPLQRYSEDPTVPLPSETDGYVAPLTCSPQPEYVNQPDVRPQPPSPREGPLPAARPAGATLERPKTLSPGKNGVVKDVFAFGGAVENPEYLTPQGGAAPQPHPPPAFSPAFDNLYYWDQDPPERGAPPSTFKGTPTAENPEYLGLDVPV
Sequence of Cyclin-dependent kinase 4 (P11802 whole entry): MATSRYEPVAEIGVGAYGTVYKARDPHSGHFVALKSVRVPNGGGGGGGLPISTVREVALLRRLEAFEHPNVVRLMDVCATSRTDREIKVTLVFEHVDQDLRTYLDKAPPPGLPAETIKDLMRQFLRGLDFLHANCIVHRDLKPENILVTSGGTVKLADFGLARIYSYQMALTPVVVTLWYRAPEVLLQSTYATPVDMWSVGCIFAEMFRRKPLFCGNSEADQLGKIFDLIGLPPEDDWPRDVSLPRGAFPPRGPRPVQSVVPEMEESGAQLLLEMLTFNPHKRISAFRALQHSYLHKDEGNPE
Sequence of Proto-oncogene tyrosine-protein kinase Src (P12931 2-536 limits assumed): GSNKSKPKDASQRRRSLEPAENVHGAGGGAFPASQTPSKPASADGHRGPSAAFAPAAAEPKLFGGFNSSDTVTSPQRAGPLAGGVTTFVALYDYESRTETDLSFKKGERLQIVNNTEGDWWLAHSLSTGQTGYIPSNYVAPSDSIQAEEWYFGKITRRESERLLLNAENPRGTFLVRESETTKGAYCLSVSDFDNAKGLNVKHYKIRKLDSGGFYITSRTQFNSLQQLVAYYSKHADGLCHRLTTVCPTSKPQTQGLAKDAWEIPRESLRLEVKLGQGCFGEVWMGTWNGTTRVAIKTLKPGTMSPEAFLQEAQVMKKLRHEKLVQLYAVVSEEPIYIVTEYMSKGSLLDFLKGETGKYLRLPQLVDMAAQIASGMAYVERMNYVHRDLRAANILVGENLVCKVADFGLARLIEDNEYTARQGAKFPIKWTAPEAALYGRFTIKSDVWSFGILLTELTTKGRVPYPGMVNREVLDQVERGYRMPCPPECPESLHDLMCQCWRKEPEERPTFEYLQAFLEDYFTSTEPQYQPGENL

SMILES	IC50 [1]	IC50 [2]	IC50 [3]	IC50 [4]	Activity (Mus musculus [5])	Activity (Mus musculus [6])	Activity (Mus musculus [7])	Activity (Mus musculus [8])	Growth inhibiton (Mus musculus [9])	Activity (Mus musculus [10])	Activity (Mus musculus [11])
COc1cc(Nc2c(C#N)cnc3cc4cc(OCCN5CCOCC5)c(OC)cc4cc23)c(Cl)cc1Cl	> 10000 nM	> 10000 nM	2500 nM	0.46 nM	1.9 µg/mL	0.3 µg/mL	0.02 µg/mL	2.1 µg/mL	25%	–	–
COc1cc(Nc2c(C#N)cnc3cc4cc(OCCN5CCN(C)CC5)c(OC)cc4cc23)c(Cl)cc1Cl	–	–	–	–	–	–	0.24 µg/mL	1.3 µg/mL	20%	0.63 µg/mL	0.7 µg/mL
